According to the supplement of paper PMC11061612:

Tests used:
Assay in all cases: combination Emax (second highest fraction inhibited in the dose matrix, 72 h); higher = more inhibition; extreme values may be limits of the assay
[1] = system: NCI-H1573 (Lung Adenocarcinoma)
Procedure, shortened: (§1)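 Bliss excess equals the observed combination effect minus the expected value EA + EB − EA·EB, where EA and EB are the effects of each agent alone. Combination Emax is the second-highest inhibition within the matrix. Inhibition was scaled from CellTiter-Glo 2.0 luminescence, with 0 set by vehicle wells and 1 by blank wells, after 72 hours of two-drug dosing of cells plated in 1536-well plates.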

[2] = system: TGBC11TKB (Gastric Carcinoma)
Procedure, shortened: as §1

[3] = system: PF-382 (T-Lymphoblastic Leukemia)
Procedure, shortened: as §1

[4] = system: LOU-NH91 (Squamous Cell Lung Carcinoma)
Procedure, shortened: as §1

[5] = system: SNU-C1 (Colorectal Carcinoma)
Procedure, shortened: as §1

[6] = system: KU-19-19 (Bladder Carcinoma)
Procedure, shortened: as §1

[7] = system: RPMI-7951 (Melanoma)
Procedure, shortened: as §1

[8] = system: KP-2 (Pancreatic Carcinoma)
Procedure, shortened: as §1

[9] = system: KYSE-50 (Esophageal Squamous Cell Carcinoma)
Procedure, shortened: as §1

[10] = system: EMC-BAC-2 (Non-Small Cell Lung Carcinoma)
Procedure, shortened: as §1

[11] = system: H-EMC-SS (Chondrosarcoma)
Procedure, shortened: as §1

[12] = system: NCI-N87 (Gastric Carcinoma)
Procedure, shortened: as §1

[13] = system: GI-1 (Glioblastoma)
Procedure, shortened: as §1

[14] = system: MFE-319 (Endometrial Carcinoma)
Procedure, shortened: as §1

[15] = system: EW-3 (Ewing's Sarcoma)
Procedure, shortened: as §1

[16] = system: NB7 (Neuroblastoma)
Procedure, shortened: as §1

[17] = system: NCI-H513 (Other Solid Carcinomas)
Procedure, shortened: as §1

[18] = system: KYSE-150 (Esophageal Squamous Cell Carcinoma)
Procedure, shortened: as §1

[19] = system: OCUB-M (Breast Carcinoma)
Procedure, shortened: as §1

[20] = system: NH-12 (Neuroblastoma)
Procedure, shortened: as §1

Compound	combination Emax [1]	combination Emax [2]	combination Emax [3]	combination Emax [4]	combination Emax [5]	combination Emax [6]	combination Emax [7]	combination Emax [8]	combination Emax [9]	combination Emax [10]	combination Emax [11]	combination Emax [12]	combination Emax [13]	combination Emax [14]	combination Emax [15]	combination Emax [16]	combination Emax [17]	combination Emax [18]	combination Emax [19]	combination Emax [20]
CCc1c2c(nc3ccc(O)cc13)-c1cc3c(c(=O)n1C2)COC(=O)[C@]3(O)CC [SN-38] + CN(C)CCCOc1ccc(-c2ccc3ncc4c(c3c2)n(C2CCOCC2)c(=O)n4C)cn1 [AZD0156] (first compound max 0.3 µM, 7x7, partner max 1 µM)	0.228	0.772	0.994	0.857	0.419	0.828	0.933	0.404	0.171	0.594	0.643	0.697	0.974	0.243	0.838	0.913	0.544	0.732	0.764	0.838
COc1cccc2c1C(=O)c1c(O)c3c(c(O)c1C2=O)C[C@@](O)(C(=O)CO)C[C@@H]3O[C@H]1C[C@H](N)[C@H](O)[C@H](C)O1 [Doxorubicin] + Cc1cc2ncnn2cc1Nc1ncc2c(n1)n(C1CCOCC1)c(=O)n2C [AZD7648] (first compound max 1 µM, 7x7, partner max 10 µM)	0.255	0.203	0.989	0.782	0.407	0.814	0.957	0.513	0.678	0.829	0.957	0.726	0.929	0.552	0.788	0.826	0.527	0.958	0.943	0.944
Cn1cnc2c(F)c(Nc3ccc(Br)cc3Cl)c(C(=O)NOCCO)cc21 [Selumetinib] + C[C@@H]1COCCN1C2=NC(=NC(=C2)C3(CC3)[S@](=N)(=O)C)C4=C5C=CNC5=NC=C4 [AZD6738] (first compound max 10 µM, 7x7, partner max 10 µM)	0.663	0.854	0.912	0.353	0.641	0.89	0.873	0.483	0.573	0.557	0.296	0.632	0.781	0.752	0.822	0.597	0.416	0.622	0.249	0.91
C=CCn1c(=O)c2cnc(Nc3ccc(N4CCN(C)CC4)cc3)nc2n1-c1cccc(C(C)(C)O)n1 [AZD1775] + C[C@@H]1COCCN1C2=NC(=NC(=C2)C3(CC3)[S@](=N)(=O)C)C4=C5C=CNC5=NC=C4 [AZD6738] (first compound max 1 µM, partner max 10 µM)	0.694	0.922	0.966	0.54	0.624	0.811	0.951	0.297	0.694	0.571	0.606	0.806	0.984	0.825	0.804	0.934	0.439	0.756	0.799	0.937
Cc1c2c(nn1C)CSCc1cc(n(C)n1)CSc1cc(c3ccccc3c1)OCCCc1c(C(=O)O)n(C)c3c-2c(Cl)ccc13 [AZD5991] + C[C@@H]1COCCN1C2=NC(=NC(=C2)C3(CC3)[S@](=N)(=O)C)C4=C5C=CNC5=NC=C4 [AZD6738] (first compound max 1 µM, 7x7, partner max 10 µM)	0.516	0.889	0.929	0.426	0.333	0.767	0.98	0.259	0.643	0.862	0.511	0.688	0.995	0.932	0.892	0.918	0.344	0.543	1	0.901
C=CCn1c(=O)c2cnc(Nc3ccc(N4CCN(C)CC4)cc3)nc2n1-c1cccc(C(C)(C)O)n1 [AZD1775] + C1CN(CCC1(C(=O)N[C@@H](CCO)C2=CC=C(C=C2)Cl)N)C3=NC=NC4=C3C=CN4 [Capivasertib] (first compound max 3 µM, partner max 3 µM)	0.604	0.939	0.952	0.727	0.568	0.856	0.856	0.498	0.771	0.592	0.464	0.689	0.907	0.858	0.518	0.748	0.494	0.727	0.955	0.852
CC1(C)CCC(CN2CCN(c3ccc(C(=O)NS(=O)(=O)c4ccc(NCC5CCOCC5)c([N+](=O)[O-])c4)c(Oc4cnc5[nH]ccc5c4)c3)CC2)=C(c2ccc(Cl)cc2)C1 [Venetoclax] + C[C@@H](Nc1cc(F)cc(F)c1)c1cc(C(=O)N(C)C)cc2c(=O)cc(N3CCOCC3)oc12 [AZD8186] (first compound max 1 µM, 7x7, partner max 3 µM)	0.162	0.203	0.202	0.221	0.063	0.0745	0.496	0.0788	0.18	0.2	0.323	0.578	0.28	0.0342	0.736	0.295	0.17	0.161	0.276	0.612
Cc1cc2ncnn2cc1Nc1ncc2c(n1)n(C1CCOCC1)c(=O)n2C [AZD7648] + CCN(CCO)CCCOc1ccc2c(Nc3cc(CC(=O)Nc4cccc(F)c4)[nH]n3)ncnc2c1 [AZD2811] (first compound max 10 µM, 7x7, partner max 1 µM)	0.214	0.327	0.851	0.37	0.351	0.489	0.476	0.0095	0.341	0.349	0.545	0.44	0.425	0.278	0.397	0.406	0.116	0.658	0.764	0.667
Cc1nc(Nc2ncc(C(=O)Nc3c(C)cccc3Cl)s2)cc(N2CCN(CCO)CC2)n1 [Dasatinib] + CC(=O)Nc1cccc(-n2c(=O)n(C3CC3)c(=O)c3c(Nc4ccc(I)cc4F)n(C)c(=O)c(C)c32)c1 [Trametinib] (first compound max 2 µM, 7x7, partner max 1 µM)	0.707	0.492	0.991	0.674	0.578	1	0.87	0.712	0.858	0.779	0.684	0.764	0.368	0.368	0.0371	0.65	0.531	0.743	0.0542	0.644
Cc1c2c(nn1C)CSCc1cc(n(C)n1)CSc1cc(c3ccccc3c1)OCCCc1c(C(=O)O)n(C)c3c-2c(Cl)ccc13 [AZD5991] + CN(C)CCCOc1ccc(-c2ccc3ncc4c(c3c2)n(C2CCOCC2)c(=O)n4C)cn1 [AZD0156] (first compound max 1 µM, 7x7, partner max 1 µM)	0.394	0.476	0.337	0.47	0.424	0.253	0.945	0.18	0.292	0.745	0.431	0.45	0.774	0.78	0.662	0.499	0.228	0.453	0.949	0.226
CC(=O)c1c(C)c2cnc(Nc3ccc(N4CCNCC4)cn3)nc2n(C2CCCC2)c1=O [Palbociclib] + Cn1cnc2c(F)c(Nc3ccc(Br)cc3Cl)c(C(=O)NOCCO)cc21 [Selumetinib] (first compound max 10 µM, 7x7, partner max 10 µM)	0.565	0.436	0.761	0.213	0.598	0.935	0.546	0.376	0.357	0.362	0.414	0.498	0.0397	0.31	0.45	0.331	0.305	0.684	0.0542	0.592
CN(CCO)CC[C@H](CSc1ccccc1)Nc1ccc(S(=O)(=O)NC(=O)c2ccc(N3CCC([C@@H](O)c4ccccc4-c4ccc(Cl)cc4)CC3)cc2)cc1S(=O)(=O)C(F)(F)F [AZD4320] + Cn1cnc2c(F)c(Nc3ccc(Br)cc3Cl)c(C(=O)NOCCO)cc21 [Selumetinib] (first compound max 1 µM, 7x7, partner max 3 µM)	0.4	0.469	1	0.662	0.944	0.937	0.526	0.962	0.239	0.416	0.691	0.604	0.801	0.522	0.906	0.507	0.398	0.359	0.797	0.998
